According to BigSolDB 2.1:

NC12CC3CC(C1)CC(O)(C3)C2
solubility (mole fraction)
Details | in THF | in ethanol | in methanol | in n-butanol | in n-propanol | in water
278.15 K | 0.0201 | 0.0608 | 0.0136 | 0.0626 | 0.133 | 0.0125
283.15 K | 0.0213 | 0.0768 | 0.0176 | 0.0657 | 0.145 | 0.0146
288.15 K | 0.0229 | 0.0974 | 0.0209 | 0.0679 | 0.157 | 0.0173
293.15 K | 0.0247 | 0.123 | 0.0253 | 0.0704 | 0.171 | 0.0207
298.15 K | 0.0269 | 0.151 | 0.0297 | 0.0736 | 0.185 | 0.0233
303.15 K | 0.0294 | 0.183 | 0.0352 | 0.0761 | 0.2 | 0.0266
308.15 K | 0.0323 | 0.219 | 0.0422 | 0.0799 | 0.216 | 0.0306
313.15 K | 0.0356 | 0.256 | 0.0509 | 0.0827 | 0.234 | 0.0354
318.15 K | 0.0394 | 0.296 | 0.0618 | 0.0868 | 0.252 | 0.0413
323.15 K | 0.0439 | 0.337 | 0.0754 | 0.0904 | 0.272 | 0.0486
328.15 K | 0.049 | 0.389 | 0.0926 | 0.0943 | 0.293 | 0.0575
